From patent US20160207930A1 (LEO PHARMA A/S, priority 2013, published 2016)

How the values were obtained:
NK1 Receptor = target: T1, NK1 Receptor (Homo sapiens, UniProt P25103); assay: NK1 receptor mediated intracellular [Ca2+] mobilization in U251 MG cells using FLIPR; assay type: cell-based; details: antagonism of Substance P (EC80), Fluo-4, read-out: NK1R mediated intracellular [Ca^2+] mobilization IC 50
T1 construct: Measurement of NK1 Receptor Mediated Intracellular [Ca^2+]; Mobilization in U251 MG Cells Using FLIPR; endogenous in cells; host or cells: U251 MG cells
T1 sequence (P25103 whole entry): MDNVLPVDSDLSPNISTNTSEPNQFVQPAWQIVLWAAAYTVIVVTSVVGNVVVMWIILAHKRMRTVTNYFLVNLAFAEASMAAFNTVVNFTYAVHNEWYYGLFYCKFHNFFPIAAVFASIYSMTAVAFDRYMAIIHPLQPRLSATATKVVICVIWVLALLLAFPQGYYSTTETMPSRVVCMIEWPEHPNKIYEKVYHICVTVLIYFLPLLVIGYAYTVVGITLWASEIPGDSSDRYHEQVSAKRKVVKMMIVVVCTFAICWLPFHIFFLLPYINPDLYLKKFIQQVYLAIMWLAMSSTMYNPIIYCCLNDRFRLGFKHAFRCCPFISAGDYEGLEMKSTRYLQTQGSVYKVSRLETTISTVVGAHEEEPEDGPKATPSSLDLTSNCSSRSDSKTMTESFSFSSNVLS
How it was run: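 Fluo-4-loaded U251 MG cells preincubated with compound (0.5% DMSO final), checked 5 min for agonism, then 10 min at 37 °C before Substance P at EC80. Peak fluorescence change on FLIPR, normalized to 100 nM Aprepitant maximal response; IC50 by four-parameter logistic fit, reported as pIC50.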

[1] = Hepatic intrinsic clearance following incubation in human liver microsomes; assay type: in vitro ADME; details: 0.5 μM test compound, NADPH, 0-30 min, scaled to g liver
How it was run: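 Compound incubated at 37° C with microsomes diluted to 0.55 mg/mL protein in 50 mM potassium phosphate pH 7.4 plus NADPH regenerating system; sampled 0–30 min and analysed by LC-MS/MS. Clint from ln(% parent remaining) slope, scaled to mL/min/g liver; Eh derived assuming 25.7 g/kg liver, 20.7 mL/min/kg blood flow.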

Row | IC50 (NK1 Receptor) | Human in vitro Clint [1] | Structure (SMILES)
1 | 0.054 nM | >200 mL/min/g | Cc1ccc([C@H]2[C@@H]3CC(CCO)(CCO)C(=O)N3CCN2C(=O)N(C)[C@H](C)c2cc(Cl)cc(C(F)(F)F)c2)c(C)c1 [Compound 34, (1S,8aS)—N—((R)-1-(3-chloro-5-(trifluoromethyl)phenyl)ethyl)-1-(2,4-dimethylphenyl)-7,7-bis(2-hydroxyethyl)-N-methyl-6-oxo-hexahydropyrrolo[1,2-a]pyrazine-2(1H)-carboxamide]
2 | 0.141 nM | >200 mL/min/g | Cc1ccc([C@H]2[C@@H]3CC(CCO)(CCO)C(=O)N3CCN2C(=O)N(C)[C@H](C)c2cc(C(C)C)cc(C(F)(F)F)c2)c(C)c1 [Compound 35, (1S,8aS)-1-(2,4-dimethylphenyl)-7,7-bis(2-hydroxyethyl)-N—((R)-1-(3-isopropyl-5-(trifluoromethyl)phenyl)ethyl)-N-methyl-6-oxohexahydropyrrolo[1,2-a]pyrazine-2(1H)-carboxamide]
3 | 0.811 nM | 147 mL/min/g | COc1ccccc1[C@H]1[C@@H]2CC(CCO)(CCO)C(=O)N2CCN1C(=O)N(C)[C@H](C)c1cc(C(F)(F)F)cc(C(F)(F)F)c1 [Compound 36, (1S,8aS)—N—((R)-1-(3,5-bis(trifluoromethyl)phenyl)ethyl)-7,7-bis(2-hydroxyethyl)-1-(2-methoxyphenyl)-N-methyl-6-oxo-hexahydropyrrolo[1,2-a]pyrazine-2(1H)-carboxamide]
4 | 0.08 nM | 30 mL/min/g | Cc1ccc(C)c([C@H]2[C@@H]3CC(CCO)(CCO)C(=O)N3CCN2C(=O)N(C)[C@H](C)c2cc(C(F)(F)F)cc(C(F)(F)F)c2)c1 [Compound 37, (1S,8aS)—N—((R)-1-(3,5-bis(trifluoromethyl)phenyl)ethyl)-1-(2,5-dimethylphenyl)-7,7-bis(2-hydroxyethyl)-N-methyl-6-oxo-hexahydropyrrolo[1,2-a]pyrazine-2(1H)-carboxamide]
5 | 0.118 nM | 157 mL/min/g | Cc1ccc(C)c([C@H]2[C@@H]3CC(CCO)(CCO)C(=O)N3CCN2C(=O)N(C)[C@H](C)c2cc(C(C)C)cc(C(F)(F)F)c2)c1 [Compound 38, (1S,8aS)-1-(2,5-dimethylphenyl)-7,7-bis(2-hydroxyethyl)-N—((R)-1-(3-isopropyl-5-(trifluoromethyl)phenyl)ethyl)-N-methyl-6-oxohexahydropyrrolo[1,2-a]pyrazine-2(1H)-carboxamide]
6 | 0.119 nM | >200 mL/min/g | Cc1cccc([C@H]2[C@@H]3CC(CCO)(CCO)C(=O)N3CCN2C(=O)N(C)[C@H](C)c2cc(C(F)(F)F)cc(C(F)(F)F)c2)c1C [Compound 39, (1S,8aS)—N—((R)-1-(3,5-bis(trifluoromethyl)phenyl)ethyl)-1-(2,3-dimethylphenyl)-7,7-bis(2-hydroxyethyl)-N-methyl-6-oxohexahydropyrrolo[1,2-a]pyrazine-2(1H)-carboxamide]
7 | 0.197 nM | >200 mL/min/g | Cc1cccc([C@H]2[C@@H]3CCC(=O)N3CCN2C(=O)N(C)[C@H](C)c2cc(C(F)(F)F)cc(C(F)(F)F)c2)c1C [Compound 40, (1S,8aS)—N—((R)-1-(3,5-bis(trifluoromethyl)phenyl)ethyl)-1-(2,3-dimethylphenyl)-N-methyl-6-oxo-hexahydropyrrolo[1,2-a]pyrazine-2(1H)-carboxamide]

The remaining lines, values behind:

Row | Structure (SMILES) | IC50 (NK1 Receptor) | Human in vitro Clint [1]
8 | Cc1cc(CN(C)C(=O)N2CCN3C(=O)C(CCO)(CCO)C[C@H]3[C@@H]2c2ccccc2C)nc(C(F)(F)F)c1 [Compound 33, (1S,8aS)-7,7-bis(2-hydroxyethyl)-N-methyl-N-((4-methyl-6-(trifluoromethyl)pyridin-2-yl)methyl)-6-oxo-1-o-tolylhexahydropyrrolo[1,2-a]pyrazine-2(1H)-carboxamide] | 0.139 nM | >200 mL/min/g
9 | CCc1cc([C@@H](C)N(C)C(=O)N2CCN3C(=O)CC[C@H]3[C@@H]2c2cccc(C)c2C)cc(C(F)(F)F)c1 [Compound 41, (1S,8aS)-1-(2,3-dimethylphenyl)-N—((R)-1-(3-ethyl-5-(trifluoromethyl)phenyl)ethyl)-N-methyl-6-oxo-hexahydropyrrolo[1,2-a]pyrazine-2(1H)-carboxamide] | 0.111 nM | >200 mL/min/g
10 | Cc1cccc([C@H]2[C@@H]3CCC(=O)N3CCN2C(=O)N(C)[C@H](C)c2cc(C(C)C)cc(C(F)(F)F)c2)c1C [Compound 42] | 0.306 nM | >200 mL/min/g
11 | Cc1cccnc1[C@@H]1[C@@H]2CCC(=O)N2CCN1C(=O)N(C)[C@H](C)c1cc(C(F)(F)F)cc(C(F)(F)F)c1 [Compound 44, (1S,8aS)—N—((R)-1-(3,5-bis(trifluoromethyl)phenyl)ethyl)-N-methyl-1-(3-methylpyridin-2-yl)-6-oxo-hexahydropyrrolo[1,2-a]pyrazine-2(1H)-carboxamide] | 100 nM | >200 mL/min/g
12 | Cc1ccncc1[C@H]1[C@@H]2CCC(=O)N2CCN1C(=O)N(C)[C@H](C)c1cc(C(F)(F)F)cc(C(F)(F)F)c1 [Compound 45, (1S,8aS)—N—((R)-1-(3,5-bis(trifluoromethyl)phenyl)ethyl)-N-methyl-1-(4-methylpyridin-3-yl)-6-oxo-hexahydropyrrolo[1,2-a]pyrazine-2(1H)-carboxamide] | 0.772 nM | <10 mL/min/g
13 | Cc1cnccc1[C@H]1[C@@H]2CCC(=O)N2CCN1C(=O)N(C)[C@H](C)c1cc(C(F)(F)F)cc(C(F)(F)F)c1 [Compound 46, (1S,8aS)—N—((R)-1-(3,5-bis(trifluoromethyl)phenyl)ethyl)-N-methyl-1-(3-methylpyridin-4-yl)-6-oxohexahydropyrrolo[1,2-a]pyrazine-2(1H)-carboxamide] | 0.167 nM | <10 mL/min/g
14 | Cc1cscc1[C@H]1[C@@H]2CCC(=O)N2CCN1C(=O)N(C)[C@H](C)c1cc(C(F)(F)F)cc(C(F)(F)F)c1 [Compound 48] | 0.249 nM | >200 mL/min/g
15 | CCc1cc([C@@H](C)N(C)C(=O)N2CCN3C(=O)CC[C@H]3[C@@H]2c2cscc2C)cc(C(F)(F)F)c1 [Compound 49, (1S,8aS)—N—((R)-1-(3-ethyl-5-(trifluoromethyl)phenyl)ethyl)-N-methyl-1-(4-methylthiophen-3-yl)-6-oxohexahydropyrrolo[1,2-a]pyrazine-2(1H)-carboxamide] | 0.999 nM | >200 mL/min/g
16 | Cc1ccsc1[C@H]1[C@@H]2CCC(=O)N2CCN1C(=O)N(C)[C@H](C)c1cc(C(F)(F)F)cc(C(F)(F)F)c1 [Compound 50] | 0.08 nM | >200 mL/min/g
17 | CCc1cc([C@@H](C)N(C)C(=O)N2CCN3C(=O)CC[C@H]3[C@@H]2c2sccc2C)cc(C(F)(F)F)c1 [Compound 51, (1R,8aS)—N—((R)-1-(3-ethyl-5-(trifluoromethyl)phenyl)ethyl)-N-methyl-1-(3-methylthiophen-2-yl)-6-oxohexahydropyrrolo[1,2-a]pyrazine-2(1H)-carboxamide] | 0.055 nM | >200 mL/min/g
18 | Cc1cc([C@@H](C)N(C)C(=O)N2CCN3C(=O)CC[C@H]3[C@@H]2c2sccc2C)cc(C(F)(F)F)c1 [Compound 52, (1R,8aS)—N-methyl-N—((R)-1-(3-methyl-5-(trifluoromethyl)phenyl)ethyl)-1-(3-methylthiophen-2-yl)-6-oxohexahydropyrrolo[1,2-a]pyrazine-2(1H)-carboxamide] | 0.353 nM | >200 mL/min/g
19 | C[C@H](c1cc(C(F)(F)F)cc(C(F)(F)F)c1)N(C)C(=O)N1CCN2C(=O)CC[C@H]2[C@@H]1c1cccs1 [Compound 53, (1R,8aS)—N—((R)-1-(3,5-bis(trifluoromethyl)phenyl)ethyl)-N-methyl-6-oxo-1-(thiophen-2-yl)hexahydropyrrolo[1,2-a]pyrazine-2(1H)-carboxamide] | 0.43 nM | >200 mL/min/g
20 | CCc1cc([C@@H](C)N(C)C(=O)N2CCN3C(=O)CC[C@H]3[C@@H]2c2cccs2)cc(C(F)(F)F)c1 [Compound 54, (1R,8aS)—N—((R)-1-(3-ethyl-5-(trifluoromethyl)phenyl)ethyl)-N-methyl-6-oxo-1-(thiophen-2-yl)hexahydropyrrolo[1,2-a]pyrazine-2(1H)-carboxamide] | 0.514 nM | >200 mL/min/g
21 | Cc1cc([C@@H](C)N(C)C(=O)N2CCN3C(=O)CC[C@H]3[C@@H]2c2ccsc2C)cc(C(F)(F)F)c1 [Compound 55, (1S,8aS)—N-methyl-N—((R)-1-(3-methyl-5-(trifluoromethyl)phenyl)ethyl)-1-(2-methylthiophen-3-yl)-6-oxohexahydropyrrolo[1,2-a]pyrazine-2(1H)-carboxamide] | 1.58 nM | >200 mL/min/g
22 | CCc1cc([C@@H](C)N(C)C(=O)N2CCN3C(=O)CC[C@H]3[C@@H]2c2ccsc2C)cc(C(F)(F)F)c1 [Compound 56, (1S,8aS)—N—((R)-1-(3-ethyl-5-(trifluoromethyl)phenyl)ethyl)-N-methyl-1-(2-methylthiophen-3-yl)-6-oxohexahydropyrrolo[1,2-a]pyrazine-2(1H)-carboxamide] | 1.51 nM | >200 mL/min/g
23 | Cc1sccc1[C@H]1[C@@H]2CCC(=O)N2CCN1C(=O)N(C)[C@H](C)c1cc(C(F)(F)F)cc(C(F)(F)F)c1 [Compound 57, (1S,8aS)—N—((R)-1-(3,5-bis(trifluoromethyl)phenyl)ethyl)-N-methyl-1-(2-methylthiophen-3-yl)-6-oxohexahydropyrrolo[1,2-a]pyrazine-2(1H)-carboxamide] | 0.152 nM | >200 mL/min/g
